pIC50: −log10 of the molar value.
Assays:
[1] = target: T1, FASN Keto-reductase Domain (Homo sapiens, UniProt P49327); experiment: Fatty Acid Synthase Keto-Reductase Domain (FASN KR) Inhibition; format: biochemical; conditions: mean where tested more than once; read-out: FASN K-R Domain pIC50 (converted)
T1 construct: 10 μL hFASN enzyme (full length, 300 ng, purified in house) and 360 μM NADPH; made in house
Procedure, shortened: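 Full-length human FASN (300 ng) in 100 mM KH2PO4 pH 7.5 with 360 μM NADPH and 180 mM ethyl acetoacetate (stock); A340 decrease read over 20 min at room temperature.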

[2] = test system: A2780 ovarian cells; experiment: A2780 Ovarian Cell Proliferation Assay in Lipid Reduced Medium, without Palmitate; format: cell-based; conditions: Homo sapiens, A2780; lipid reduced medium, without palmitate, 96 h, MTT; read-out: Proliferation A2780 w/o Palmitate pIC50 (converted)
Procedure, shortened: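 A2780 cells were seeded in 10% FCS medium and switched next day to 10% lipid-reduced serum without palmitate. Compounds at 0.01–30 μM were added with 0.2% DMSO, 0.2% fatty-acid-free BSA and 0.25% ethanol final. After 96 h, MTT absorbance at 544 nm was normalized to plate controls, and IC50/pIC50 came from a 4-parameter logistic fit.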

[3] = test system: A2780 ovarian cells; experiment: A2780 Ovarian Cell Proliferation Assay in Lipid Reduced Medium, with Palmitate (control); format: cell-based; conditions: Homo sapiens, A2780; lipid reduced medium, 25 μM palmitate, 96 h, MTT; read-out: Proliferation A2780 with Palmitate pIC50 (converted)
Procedure, shortened: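 A2780 cells were seeded in RPMI1640 with 10% FCS, then switched next day to medium with 10% lipid-reduced serum. Compound was added with final 25 μM palmitate, 0.2% fatty-acid-free BSA and 0.2% DMSO, and incubated 96 h at 37 °C. Read-out was MTT absorbance at 544 nm; pIC50 = −log(IC50) from curve fit.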

[4] = target: T2, hFASN enzyme (full length) (Homo sapiens, UniProt P49327); experiment: Fatty Acid Synthase (FASN) Inhibition Scintillation Proximity Assay; format: biochemical; conditions: for pIC50: mean where tested more than once, ~ = standard error of pIC50 larger than 0.5; for inhibition at 10 µM: read-out: FASN % Effect @1E−05M
T2 construct: 10 μL hFASN enzyme (full length, 300 ng, purified in house); made in house
T2 sequence (P49327 whole entry): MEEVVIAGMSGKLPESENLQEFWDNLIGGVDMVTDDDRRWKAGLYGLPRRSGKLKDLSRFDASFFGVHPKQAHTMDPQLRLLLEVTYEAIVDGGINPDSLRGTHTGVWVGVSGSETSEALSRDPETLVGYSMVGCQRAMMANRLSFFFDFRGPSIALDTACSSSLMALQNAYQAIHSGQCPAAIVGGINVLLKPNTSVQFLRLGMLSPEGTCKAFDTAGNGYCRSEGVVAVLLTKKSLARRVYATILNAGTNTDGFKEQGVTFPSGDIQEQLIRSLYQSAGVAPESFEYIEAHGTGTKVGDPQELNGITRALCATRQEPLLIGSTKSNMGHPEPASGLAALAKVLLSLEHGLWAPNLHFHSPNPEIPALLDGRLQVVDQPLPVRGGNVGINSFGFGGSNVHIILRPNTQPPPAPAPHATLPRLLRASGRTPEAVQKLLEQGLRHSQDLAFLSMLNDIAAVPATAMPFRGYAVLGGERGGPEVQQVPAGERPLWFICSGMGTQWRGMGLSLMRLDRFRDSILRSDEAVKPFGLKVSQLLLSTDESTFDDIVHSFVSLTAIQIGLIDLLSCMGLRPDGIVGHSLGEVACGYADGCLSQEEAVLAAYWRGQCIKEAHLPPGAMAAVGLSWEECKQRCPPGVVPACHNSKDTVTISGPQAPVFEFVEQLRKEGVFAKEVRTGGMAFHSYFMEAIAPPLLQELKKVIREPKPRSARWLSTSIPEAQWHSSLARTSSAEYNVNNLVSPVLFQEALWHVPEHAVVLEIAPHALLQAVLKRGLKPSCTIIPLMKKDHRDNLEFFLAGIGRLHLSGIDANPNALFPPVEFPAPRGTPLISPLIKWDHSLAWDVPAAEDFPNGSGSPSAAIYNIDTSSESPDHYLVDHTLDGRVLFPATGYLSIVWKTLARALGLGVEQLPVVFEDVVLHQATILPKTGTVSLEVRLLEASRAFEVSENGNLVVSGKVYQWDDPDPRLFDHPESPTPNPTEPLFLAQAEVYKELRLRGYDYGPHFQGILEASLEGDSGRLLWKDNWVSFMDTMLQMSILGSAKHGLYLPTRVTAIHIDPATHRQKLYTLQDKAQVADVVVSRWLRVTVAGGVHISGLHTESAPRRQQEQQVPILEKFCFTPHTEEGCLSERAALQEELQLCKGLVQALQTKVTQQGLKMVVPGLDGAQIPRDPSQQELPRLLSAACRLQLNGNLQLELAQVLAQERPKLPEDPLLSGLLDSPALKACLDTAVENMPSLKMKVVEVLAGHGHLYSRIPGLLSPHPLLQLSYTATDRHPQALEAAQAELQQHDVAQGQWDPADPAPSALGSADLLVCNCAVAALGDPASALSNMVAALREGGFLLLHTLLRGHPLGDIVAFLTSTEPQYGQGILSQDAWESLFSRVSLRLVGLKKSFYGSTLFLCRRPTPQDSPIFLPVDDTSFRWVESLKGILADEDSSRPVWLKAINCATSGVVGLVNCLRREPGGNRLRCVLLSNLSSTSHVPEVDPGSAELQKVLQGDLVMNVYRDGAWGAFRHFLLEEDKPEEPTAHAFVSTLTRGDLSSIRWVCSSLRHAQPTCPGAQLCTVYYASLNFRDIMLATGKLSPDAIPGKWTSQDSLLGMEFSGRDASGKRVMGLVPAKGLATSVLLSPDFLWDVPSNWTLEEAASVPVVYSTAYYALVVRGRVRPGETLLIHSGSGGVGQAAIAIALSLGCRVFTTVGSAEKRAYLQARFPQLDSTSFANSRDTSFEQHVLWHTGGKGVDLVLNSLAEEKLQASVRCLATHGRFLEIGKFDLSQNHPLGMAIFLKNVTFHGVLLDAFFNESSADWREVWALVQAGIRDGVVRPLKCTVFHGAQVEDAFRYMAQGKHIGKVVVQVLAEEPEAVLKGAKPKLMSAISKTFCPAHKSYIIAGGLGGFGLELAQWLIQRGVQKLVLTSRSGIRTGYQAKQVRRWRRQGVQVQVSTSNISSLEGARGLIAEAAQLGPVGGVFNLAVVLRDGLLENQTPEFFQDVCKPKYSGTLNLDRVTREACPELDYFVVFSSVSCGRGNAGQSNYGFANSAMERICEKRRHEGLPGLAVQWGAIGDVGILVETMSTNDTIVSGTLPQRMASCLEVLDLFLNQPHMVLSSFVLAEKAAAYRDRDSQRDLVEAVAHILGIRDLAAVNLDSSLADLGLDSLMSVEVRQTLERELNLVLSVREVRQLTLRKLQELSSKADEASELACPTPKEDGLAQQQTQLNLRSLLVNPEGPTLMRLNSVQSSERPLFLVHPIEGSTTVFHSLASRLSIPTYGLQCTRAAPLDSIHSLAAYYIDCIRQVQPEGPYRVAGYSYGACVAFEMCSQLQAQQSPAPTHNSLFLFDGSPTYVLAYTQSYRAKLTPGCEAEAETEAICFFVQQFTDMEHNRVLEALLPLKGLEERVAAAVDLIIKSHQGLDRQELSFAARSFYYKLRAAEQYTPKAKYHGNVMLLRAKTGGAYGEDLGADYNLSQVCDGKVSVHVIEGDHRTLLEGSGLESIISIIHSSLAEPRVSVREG
Procedure, shortened: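 Purified full-length human FASN (300 ng) incubated 60 min at room temperature with NADPH, [3H]-acetyl-CoA and malonyl-CoA in 100 mM KH2PO4 pH 7.5, 1 mM DTT; compound at 30 μM to 0.01 μM. [3H]-palmitate captured by SPA imaging beads; IC50 from 4-parameter fit, reported as pIC50.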

T1 sequence (P49327 whole entry, the tested form may be a part): as the sequence (P49327 whole entry) above

Compound	IC50 [1] [nM]	IC50 [2] [nM]	IC50 [3] [µM]	pIC50 [4]	inhibition at 10 µM [4] [%]
Cc1ccc(C(=O)N2CCC(c3ccc(-c4cnn(-c5ccncc5)c4)cc3)CC2)cc1NC(=O)c1ccc(NC(C)C)nc1 [Compound 272, 6-(isopropylamino)-N-(2-methyl-5-(4-(4-(1-(pyridin-4-yl)-1H-pyrazol-4-yl)phenyl)piperidine-1-carbonyl)phenyl)nicotinamide]	105	43.7	1.38	7.53	112
Cc1ccc(C(=O)N2CCC(c3ccc(-n4ccnc4)cc3)C(C)(C)C2)cc1NC(=O)c1ccc(Cl)nc1 (stereo not drawn) [Compound #6, N-(5-(4-(4-(1H-imidazol-1-yl)phenyl)-3,3-dimethylpiperidine-1-carbonyl)-2-methylphenyl)-6-chloronicotinamide]	89.1	234	> 10	7.21	104
Cc1ccc(C(=O)N2CCC(c3ccc(-n4ccnc4)cc3)CC2)cc1NC(=O)c1ccc(Cl)nc1 [Compound #11, N-(5-(4-(4-(1H-imidazol-1-yl)phenyl)piperidine-1-carbonyl)-2-methylphenyl)-6-chloronicotinamide]	49	56.2	> 10	7.56	106
Cc1ccc(C(=O)N2CCC(c3ccc(-n4ccnc4)cc3)CC2)cc1NC(=O)c1ccc(NC(C)C)nc1 [Compound #15, N-(5-(4-(4-(1H-imidazol-1-yl)phenyl)piperidine-1-carbonyl)-2-methylphenyl)-6-(isopropylamino)nicotinamide]	37.2	~47.9	> 15.1	7.64	109
Cc1ccc(C(=O)N2CC(c3ccc(-c4ccc5cnn(C)c5c4)cc3)C2)cc1NC(=O)c1ccc(NC(C)C)nc1 [Compound #36, 6-(isopropylamino)-N-(2-methyl-5-(3-(4-(1-methyl-1H-indazol-6-yl)phenyl)azetidine-1-carbonyl)phenyl)nicotinamide]	27.5	~74.1	2.19	7.36	106
Cc1ccc(C(=O)N2CCC(c3ccc(-n4ccnc4)cc3)C(C)(C)C2)cc1NC(=O)c1ccc(NC(C)C)nc1 (stereo not drawn) [Compound #43, N-(5-(4-(4-(1H-imidazol-1-yl)phenyl)-3,3-dimethylpiperidine-1-carbonyl)-2-methylphenyl)-6-(isopropylamino)nicotinamide]	69.2	132	> 10	7.35	106
CC(C)Nc1ccc(C(=O)Nc2cc(C(=O)N3CC(c4ccc(-c5cccnc5)cc4)C3)ccc2Cl)cn1 [Compound #73, N-(2-chloro-5-(3-(4-(pyridin-3-yl)phenyl)azetidine-1-carbonyl)phenyl)-6-(isopropylamino)nicotinamide]	85.1	148	13.5	7.49	93
CC(C)Nc1ccc(C(=O)Nc2cc(C(=O)N3CC(c4ccc(-c5ccncc5)cc4)C3)ccc2Cl)cn1 [Compound #74, N-(2-chloro-5-(3-(4-(pyridin-4-yl)phenyl)azetidine-1-carbonyl)phenyl)-6-(isopropylamino)nicotinamide]	45.7	61.7	2.19	7.76	107

Now from value to compound:

IC50 [1] [nM]	IC50 [2] [nM]	IC50 [3] [µM]	pIC50 [4]	inhibition at 10 µM [4] [%]	Compound
55	135	> 15.1	7.27	92	CC(C)Nc1ccc(C(=O)Nc2cc(C(=O)N3CC(c4ccc(-c5ccc6cnccc6c5)cc4)C3)ccc2Cl)cn1 [Compound #75, N-(2-chloro-5-(3-(4-(isoquinolin-6-yl)phenyl)azetidine-1-carbonyl)phenyl)-6-(isopropylamino)nicotinamide]
45.7	74.1	> 10	7.79	109	COc1ccc(C(=O)Nc2cc(C(=O)N3CC(c4ccc(-c5cnn(C)c5)cc4)C3)ccc2C)cc1 [Compound #83, 4-methoxy-N-(2-methyl-5-(3-(4-(1-methyl-1H-pyrazol-4-yl)phenyl)azetidine-1-carbonyl)phenyl)benzamide]
66.1	151	> 10	7.69	103	Cc1ccc(C(=O)N2CCC(c3ccc(-c4cnn(C)c4)cc3)CC2)cc1NC(=O)C1CC1 [Compound #89, N-(2-methyl-5-(4-(4-(1-methyl-1H-pyrazol-4-yl)phenyl)piperidine-1-carbonyl)phenyl)cyclopropanecarboxamide]
25.1	15.8	> 10	7.95	109	Cc1ccc(C(=O)N2CCC(c3ccc(-c4cnn(C)c4)cc3)CC2)cc1NC(=O)c1ccc(N2CCOCC2)nc1 [Compound #91, N-(2-methyl-5-(4-(4-(1-methyl-1H-pyrazol-4-yl)phenyl)piperidine-1-carbonyl)phenyl)-6-morpholinonicotinamide]
44.7	93.3	> 10	7.79	111	Cc1ccc(C(=O)N2CCC(c3ccc(-c4cnn(C)c4)cc3)CC2)cc1NC(=O)c1ccc(Cl)cc1 [Compound #100, 4-chloro-N-(2-methyl-5-(4-(4-(1-methyl-1H-pyrazol-4-yl)phenyl)piperidine-1-carbonyl)phenyl)benzamide]
66.1	30.2	2.69	7.94	104	Cc1ccc(C(=O)N2CCC(c3ccc(-c4cnn(C)c4)cc3)CC2)cc1NC(=O)c1ccc(N2CCN(C)CC2)nc1 [Compound #112, N-(2-Methyl-5-(4-(4-(1-methyl-1H-pyrazol-4-yl)phenyl)piperidine-1-carbonyl)phenyl)-6-(4-methylpiperazin-1-yl)nicotinamide]
112	45.7	> 10	7.56	111	Cc1ccc(C(=O)N2CCC(c3ccc(-c4cnn(C)c4)cc3)CC2)cc1NC(=O)C1CCN(C(C)C)CC1 [Compound #182, 1-isopropyl-N-(2-methyl-5-(4-(4-(1-methyl-1H-pyrazol-4-yl)phenyl)piperidine-1-carbonyl)phenyl)piperidine-4-carboxamide]
115	41.7	2.4	7.54	112	COc1ccc(C(=O)N2CCC(c3ccc(-c4cnn(C)c4)cc3)CC2)cc1NC(=O)c1ccc(NC(C)C)nc1 [Compound #251, 6-(isopropylamino)-N-(2-methoxy-5-(4-(4-(1-methyl-1H-pyrazol-4-yl)phenyl)piperidine-1-carbonyl)phenyl)nicotinamide]
72.4	39.8	> 10	7.62	113	CCc1ccc(C(=O)N2CCC(c3ccc(-c4cnn(C)c4)cc3)CC2)cc1NC(=O)c1ccc(Cl)nc1 [Compound #255, 6-chloro-N-(2-ethyl-5-(4-(4-(1-methyl-1H-pyrazol-4-yl)phenyl)piperidine-1-carbonyl)phenyl)nicotinamide]
60.3	8.91	6.31	7.59	116	CCc1ccc(C(=O)N2CCC(c3ccc(-c4cnn(C)c4)cc3)CC2)cc1NC(=O)c1ccc(NC(C)C)nc1 [Compound #256, N-(2-ethyl-5-(4-(4-(1-methyl-1H-pyrazol-4-yl)phenyl)piperidine-1-carbonyl)phenyl)-6-(isopropylamino)nicotinamide]

Source: patent US9562035B2, “Benzamide derivative useful as FASN inhibitors for the treatment of cancer” (Janssen Pharmaceutica NV, priority 2013, dated 2017)
